Reference: PubChem BioAssay (NCI)
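Five concentrations, 48 hours, 96-well plates. Definition used: TGI = concentration required for complete inhibition of growth.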

Legend:
Assay in all cases: DTP human tumour cell line panel, 48 h
HT29 colon = test system: HT29 colon
BT-549 breast = test system: BT-549 breast
NCI-H522 lung = test system: NCI-H522 lung
T-47D breast = test system: T-47D breast
TK-10 renal = test system: TK-10 renal
SW-620 colon = test system: SW-620 colon
SNB-75 CNS = test system: SNB-75 CNS
MDA-MB-231 breast = test system: MDA-MB-231 breast
ACHN renal = test system: ACHN renal
U251 CNS = test system: U251 CNS
SF-295 CNS = test system: SF-295 CNS
M14 melanoma = test system: M14 melanoma
UO-31 renal = test system: UO-31 renal
HCT-15 colon = test system: HCT-15 colon
A498 renal = test system: A498 renal
LOX IMVI melanoma = test system: LOX IMVI melanoma
HOP-92 NSCLC = test system: HOP-92 NSCLC
OVCAR-4 ovarian = test system: OVCAR-4 ovarian
OVCAR-3 ovarian = test system: OVCAR-3 ovarian
UACC-62 melanoma = test system: UACC-62 melanoma

| SMILES | TGI (HT29 colon) [µM] | TGI (BT-549 breast) [µM] | TGI (NCI-H522 lung) [µM] | TGI (T-47D breast) [µM] | TGI (TK-10 renal) [µM] | TGI (SW-620 colon) [µM] | TGI (SNB-75 CNS) [µM] | TGI (MDA-MB-231 breast) [µM] | TGI (ACHN renal) [µM] | TGI (U251 CNS) [µM] | TGI (SF-295 CNS) [µM] | TGI (M14 melanoma) [µM] | TGI (UO-31 renal) [µM] | TGI (HCT-15 colon) [µM] | TGI (A498 renal) [µM] | TGI (LOX IMVI melanoma) [µM] | TGI (HOP-92 NSCLC) [µM] | TGI (OVCAR-4 ovarian) [µM] | TGI (OVCAR-3 ovarian) [µM] | TGI (UACC-62 melanoma) [µM] |
| --- | --- | --- | --- | --- | --- | --- | --- | --- | --- | --- | --- | --- | --- | --- | --- | --- | --- | --- | --- | --- |
| O=C1Cc2c(-c3ccccc3)cc(-c3ccc4ccccc4c3)nc2-c2ccccc2N1 | 15.9 | > 100 | 26.1 | > 100 | 29.4 | > 100 | 5.38 | 69.6 | > 100 | > 100 | > 100 | > 100 | > 100 | > 100 | 49.6 | > 100 | > 100 | > 100 | 27.6 | > 100 |
| COc1cc2c(cc1O)-c1c(OC)c(O)cc3c1C(C2)N(C)CC3 (stereo not given) | > 100 | > 100 | > 100 | > 100 | > 100 | > 100 | > 100 | > 100 | > 100 | > 100 | > 100 | > 100 | > 100 | > 100 | > 100 | > 100 | > 100 | > 100 | > 100 | > 100 |
| Cc1ccc(C(=O)c2[nH]c(Nc3ccc(Cl)cc3)c(C(=S)Nc3ccccc3)c2N)cc1 | 16.8 | 20.5 | 23.6 | > 100 | 16.8 | 37.7 | 7.14 | 24.2 | 10.7 | 9.02 | 5.27 | 35.8 | 23 | 28.5 | 27.9 | 14.3 | 28 | 4.32 | 56.8 | 28.1 |
